US20150374691A1, “METHODS AND MATERIALS FOR TREATING ORTHOSTATIC HYPOTENSION OR POSTURAL TACHYCARDIA SYNDROME” (Mayo Foundation for Medical Education and Research, priority 2009, published 2015)

Legend:
[1] = tested on: patient with Lambert-Eaton myasthenic syndrome who also suffered from orthostatic hypotension; assay: blood pressure and heart rate response to head-up tilt before and after 3,4-DAP; format: in vivo, human; details: one patient, after oral administration of 20 mg 3,4-DAP; before administration a significant drop was observed (FIG. 1)
Method: FIG. 1 is a graph plotting the blood pressure and heart rate response to head-up tilt in a patient with orthostatic hypotension before (left) and after (right) oral administration of 20 mg of 3,4-DAP.
The effects of administering 3,4-DAP to a patient with orthostatic hypotension were studied. Briefly, the blood pressure and heart rate response to head-up tilt was studied in a patient with Lambert-Eaton myasthenic syndrome who also suffered from orthostatic hypotension before and after oral administration of 20 mg 3,4-DAP. Before administration of 3,4-DAP, a significant orthostatic blood pressure drop was observed after a head-up tilt (FIG. 1, left).

[2] = tested on: patients with myasthenic syndromes; details: among 132 patients enrolled, cited from earlier work

In the case of Nc1ccncc1N [3,4-DAP, 3,4-diaminopyridine], the “orthostatic blood pressure drop after a head-up tilt” value [1] is listed as “did not exhibit a significant orthostatic blood pressure drop”, the seizures ([2]; after being on the medication for years, clear cause-effect relationship not established) is listed as “two patients experienced a self-limited seizure” and the “complications related to cardiac arrhythmias” value [2] is listed as “no noted complications related to cardiac arrhythmias”.
